In US3950351A, “New derivatives of 2-benzamido-5-nitro thiazoles” (S.P.R.L. Phavic, priority 1973, dated 1976):

Legend:
Biomphalaria glabrata = assay: Molluscicidal activity test; assay type: in vivo; settings: 24 h exposure at 26°C, observed again after 24 h, 10, 1 and 0.1 ppm tested, read-out: dose at which active against Biomphalaria glabrata
Procedure: For determining the molluscicidal activity, the following test is used:
Two to four weeks old molluscs are used. Five molluscs having the same size are put in the same container and covered with a testing solution at a temperature of 26°C during 24 hours. After rinsing, the animals are again observed after 24 hours. The total duration of this test therefore is 48 hours.
Testing solutions containing respectively 10, 1 and 0.1 parts per million of the compounds to be tested in water having a hardness of 10° (hydrotimetric) are used.
The sensitivity of the mollusc strain is standardized with known reference molluscicides such as Niclosamide (Registered Trademark).

Hymenolepis nana [1] = assay: Test for anthelminthics, cestodes (R. CAVIER; R. CAVIER and M. J. NOTTEGHEM); assay type: in vivo; design: Hymenolepis nana: (4) percentage of activity: concentration or dose not given beside the values; settings: Table II; 10 subjects
Source text: (§1) Biological tests have been performed with a great number of compounds of formula I, using the following techniques: 1)- Test for amoebicidal activity described by R. CAVIER, Ann. pharm. franc. 1960, 18, pages 583-589 and by R. CAVIER and J. CENAC, Bull. Soc. Path. exot. 1972, 65, pages 399-404. 2) - Test for trichomonacidal activity described by R. Cavier and P. BUOT, Ann. Pharm. franc., 1964, 22, pages 211-216 and by R. CAVIER and J. CENAC, Semaine des Hopitaux, 1972, 48, pages 391-394. 3)- Tests for anthelminthics described for nematodes (such as Syphacia obvelata) by R. CAVIER, Bull. Soc. Path. exot. 1962, 55, pages 412-417, and for cestodes (such as Hymenolepis nana), by R. CAVIER, Ann. pharm. franc. 1956, 14, pages 545-552 and by R. CAVIER and M. J. NOTTEGHEM, Ann. Pharm. franc., 1968, 28, pages 603-606.

Syphacia obvelata = assay: Test for anthelminthics, nematodes (R. CAVIER); assay type: in vivo; design: Syphacia: (4) percentage of activity: concentration or dose not given beside the values; settings: Table II; 10 subjects
Source text: as §1

Hymenolepis nana [2] = assay: Tests on Hymenolepis nana in mice, anthelminthic activity, single dose (technique of R. CAVIER); assay type: in vivo; design: Mortality: unit not given here
Source text: Tests on Hymenolepis nana in mice have also been performed in order to determine the anthelminthic activity of various cmpounds of formula I, according to the technique of R. CAVIER. […] Four hours later, the animals have been purged by means of sodium sulfate.

Acute toxicity in mice = settings: mouse, in vivo
Source text: Toxicity investigations have shown that the compounds of formula I have a very low acute toxicity both on oral administration and on intraperitoneal administration to mice.

Compound | minimal effective concentration (Biomphalaria glabrata) | Hymenolepis nana: (2) number of dead subjects (Hymenolepis nana [1]) | Hymenolepis nana: (3) number of subjects from which the parasite has been eradicated (Hymenolepis nana [1]) | Hymenolepis nana: (4) percentage of activity (Hymenolepis nana [1]) | Syphacia: (2) number of dead subjects (Syphacia obvelata) | Syphacia: (3) number of subjects from which the parasite has been eradicated (Syphacia obvelata) | Syphacia: (4) percentage of activity (Syphacia obvelata) | also measured
CC(=O)Oc1ccc(Br)cc1C(=O)Nc1ncc([N+](=O)[O-])s1 [PH 6103] | 1 µg/mL | 0 | 4 | 40% | 0 | 2 | 20% | –
CC(=O)Oc1ccc(C(=O)Nc2ncc([N+](=O)[O-])s2)cc1 [PH 6046] | – | 0 | 3 | 30% | 0 | 2 | 20% | –
CC(=O)Oc1cccc(C(=O)Nc2ncc([N+](=O)[O-])s2)c1OC(C)=O [PH 6239] | 10 µg/mL | 0 | 2 | 20% | 0 | 1 | 10% | –
CC(=O)Oc1ccccc1C(=O)Nc1ncc([N+](=O)[O-])s1 [PH 5776] | 1 µg/mL | 0 | 10 | 100% | 0 | 6 | 60% | Mice from which parasite has been eradicated, number (Hymenolepis nana [2]; 25 mg/kg): 20; Mice from which parasite has been eradicated, percentage (Hymenolepis nana [2]; 25 mg/kg): 100%; Mortality (Hymenolepis nana [2]; 25 mg/kg): 0; Mice from which parasite has been eradicated, number (Hymenolepis nana [2]; 50 mg/kg): 30; Mice from which parasite has been eradicated, percentage (Hymenolepis nana [2]; 50 mg/kg): 100%; Mortality (Hymenolepis nana [2]; 50 mg/kg): 0; Mice from which parasite has been eradicated, number (Hymenolepis nana [2]; 100 mg/kg): 10; Mice from which parasite has been eradicated, percentage (Hymenolepis nana [2]; 100 mg/kg): 100%; Mortality (Hymenolepis nana [2]; 100 mg/kg): 0; Mice from which parasite has been eradicated, number (Hymenolepis nana [2]; 200 mg/kg): 10; Mice from which parasite has been eradicated, percentage (Hymenolepis nana [2]; 200 mg/kg): 100%; Mortality (Hymenolepis nana [2]; 200 mg/kg): 0; LD50 (Acute toxicity in mice; ip, intraperitoneal administration): > 95 mg/kg; LD50 (Acute toxicity in mice; oral administration): > 4000 mg/kg
CC(=O)Oc1cc(C(=O)Nc2ncc([N+](=O)[O-])s2)cc(OC(C)=O)c1OC(C)=O [PH 6177] | – | 0 | 0 | 0% | 0 | 0 | 0% | –
CC(=O)Oc1ccc(Cl)cc1C(=O)Nc1ncc([N+](=O)[O-])s1 [PH 6057] | 1 µg/mL | 0 | 7 | 70% | 0 | 2 | 20% | –
CC(=O)Oc1ccc(C(=O)Nc2ncc([N+](=O)[O-])s2)cc1OC(C)=O [PH 6162] | – | 0 | 1 | 10% | 0 | 2 | 20% | –
CC(=O)Oc1cccc(C(=O)Nc2ncc([N+](=O)[O-])s2)c1 [PH 6045] | 10 µg/mL | 0 | 4 | 40% | 0 | 0 | 0% | –
CC(=O)Oc1ccc(OC(C)=O)c(C(=O)Nc2ncc([N+](=O)[O-])s2)c1 [PH 6056] | – | 0 | 6 | 60% | 0 | 1 | 10% | –
CC(=O)Oc1cc(OC(C)=O)cc(C(=O)Nc2ncc([N+](=O)[O-])s2)c1 [PH 6161] | – | 0 | 0 | 0% | 0 | 7 | 70% | –
CC(=O)Oc1ccc(C(=O)Nc2ncc([N+](=O)[O-])s2)c(OC(C)=O)c1 [PH 6058] | – | 0 | 2 | 20% | 0 | 2 | 20% | –
CCC(=O)Oc1ccccc1C(=O)Nc1ncc([N+](=O)[O-])s1 [PH 6049] | 1 µg/mL | 0 | 10 | 100% | 0 | 2 | 20% | Mice from which parasite has been eradicated, number (Hymenolepis nana [2]; 25 mg/kg): 8; Mice from which parasite has been eradicated, percentage (Hymenolepis nana [2]; 25 mg/kg): 40%; Mortality (Hymenolepis nana [2]; 25 mg/kg): 0; Mice from which parasite has been eradicated, number (Hymenolepis nana [2]; 50 mg/kg): 14; Mice from which parasite has been eradicated, percentage (Hymenolepis nana [2]; 50 mg/kg): 70%; Mortality (Hymenolepis nana [2]; 50 mg/kg): 0; Mice from which parasite has been eradicated, number (Hymenolepis nana [2]; 100 mg/kg): 18; Mice from which parasite has been eradicated, percentage (Hymenolepis nana [2]; 100 mg/kg): 90%; Mortality (Hymenolepis nana [2]; 100 mg/kg): 0; Mice from which parasite has been eradicated, number (Hymenolepis nana [2]; 200 mg/kg): 20; Mice from which parasite has been eradicated, percentage (Hymenolepis nana [2]; 200 mg/kg): 100%; Mortality (Hymenolepis nana [2]; 200 mg/kg): 0
COc1cc(C(=O)Nc2ncc([N+](=O)[O-])s2)cc(OC)c1OC(C)=O [PH 6059] | 10 µg/mL | 0 | 1 | 10% | 0 | 2 | 20% | –
COc1cc(C(=O)Nc2ncc([N+](=O)[O-])s2)ccc1OC(C)=O [PH 6196] | – | 0 | 0 | 0% | 0 | 0 | 0% | –
